Our source for the IC50 and inhibition values is PMC3280264 (PLoS ONE, 2012).

Structures are written as SMILES.

Common to all, as to assay type: cell-based
The target in one assay is T1, Rat SGLT1 (Rattus norvegicus, UniProt P53790).
T1 construct: expressed in transfected cells; host or cells: CHO-K (CHOK) cells
T1 sequence (P53790 1-665): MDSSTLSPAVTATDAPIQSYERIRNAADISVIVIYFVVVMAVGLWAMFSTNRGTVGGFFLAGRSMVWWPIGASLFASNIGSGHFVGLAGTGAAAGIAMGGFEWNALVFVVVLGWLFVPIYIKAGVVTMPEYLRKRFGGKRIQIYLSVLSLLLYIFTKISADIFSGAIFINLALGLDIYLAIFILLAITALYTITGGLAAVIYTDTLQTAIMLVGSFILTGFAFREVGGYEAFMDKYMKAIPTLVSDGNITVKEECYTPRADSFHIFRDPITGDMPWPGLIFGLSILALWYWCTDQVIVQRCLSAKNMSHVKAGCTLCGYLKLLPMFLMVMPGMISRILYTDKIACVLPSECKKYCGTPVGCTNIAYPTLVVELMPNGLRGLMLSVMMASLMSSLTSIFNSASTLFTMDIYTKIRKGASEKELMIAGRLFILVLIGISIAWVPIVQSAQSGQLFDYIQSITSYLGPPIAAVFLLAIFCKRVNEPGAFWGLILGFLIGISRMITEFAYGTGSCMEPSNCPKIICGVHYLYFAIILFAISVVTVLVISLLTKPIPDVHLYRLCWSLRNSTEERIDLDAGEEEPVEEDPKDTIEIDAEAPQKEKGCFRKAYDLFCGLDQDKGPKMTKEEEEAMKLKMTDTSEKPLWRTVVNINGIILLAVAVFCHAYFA
Description: 14C-AMG uptake in CHOK cells expressing rat SGLT1. The following applies: mean of 2 experiments. The procedure: (§1) Cells were seeded into 96-well plates.
(§2) All data are presented as mean ± standard error.

The next assay deals with T2, Mouse SGLT1 (Mus musculus, UniProt Q8C3K6).
T2 construct: expressed in transfected cells; host or cells: CHO-K (CHOK) cells
T2 sequence (Q8C3K6 1-665): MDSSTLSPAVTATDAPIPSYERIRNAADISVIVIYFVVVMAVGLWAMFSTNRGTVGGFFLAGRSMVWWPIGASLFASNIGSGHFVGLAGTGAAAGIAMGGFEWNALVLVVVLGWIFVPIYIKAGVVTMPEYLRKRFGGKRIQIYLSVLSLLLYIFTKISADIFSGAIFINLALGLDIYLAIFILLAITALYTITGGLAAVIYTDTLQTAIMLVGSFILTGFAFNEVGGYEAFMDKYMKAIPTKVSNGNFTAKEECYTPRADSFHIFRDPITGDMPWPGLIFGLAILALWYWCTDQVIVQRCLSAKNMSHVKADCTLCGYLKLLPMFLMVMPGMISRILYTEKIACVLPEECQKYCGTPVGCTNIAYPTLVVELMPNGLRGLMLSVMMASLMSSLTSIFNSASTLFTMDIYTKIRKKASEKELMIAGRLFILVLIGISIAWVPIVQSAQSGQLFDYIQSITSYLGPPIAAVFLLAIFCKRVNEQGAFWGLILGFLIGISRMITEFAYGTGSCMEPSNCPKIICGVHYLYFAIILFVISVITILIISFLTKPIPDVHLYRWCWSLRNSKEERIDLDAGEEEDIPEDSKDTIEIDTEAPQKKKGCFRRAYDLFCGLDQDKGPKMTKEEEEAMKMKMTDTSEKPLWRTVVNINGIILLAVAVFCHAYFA
Nature of the assay: 14C-AMG uptake in CHOK cells expressing mouse SGLT1. To be noted: CHO-mSGLT1 cells, mean of 2 experiments. The procedure:
as §1, §2

In assay [1] the target is T3, glucose transporter 1 (GLUT1) (Rattus norvegicus, UniProt P11167).
T3 construct: endogenous in cells; host or cells: L6 rat skeletal muscle myoblasts
T3 sequence (P11167 1-492): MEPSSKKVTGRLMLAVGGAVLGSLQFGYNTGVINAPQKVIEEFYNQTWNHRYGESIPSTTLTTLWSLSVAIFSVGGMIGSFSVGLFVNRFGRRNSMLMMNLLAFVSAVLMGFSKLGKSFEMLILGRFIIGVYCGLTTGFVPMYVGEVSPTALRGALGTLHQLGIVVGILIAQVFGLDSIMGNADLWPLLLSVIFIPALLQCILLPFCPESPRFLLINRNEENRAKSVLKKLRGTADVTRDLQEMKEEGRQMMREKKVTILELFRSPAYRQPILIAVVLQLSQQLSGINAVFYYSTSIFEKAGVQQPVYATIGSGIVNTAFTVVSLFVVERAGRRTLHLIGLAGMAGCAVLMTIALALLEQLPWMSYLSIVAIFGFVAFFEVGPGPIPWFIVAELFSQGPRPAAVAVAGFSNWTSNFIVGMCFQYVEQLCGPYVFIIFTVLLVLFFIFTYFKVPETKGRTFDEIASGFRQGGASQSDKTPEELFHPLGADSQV
Nature of the assay: 3H-2-deoxy-glucose uptake in L6 myoblast cells. The procedure: Cells were maintained in Dulbecco's modified Eagle's medium containing 5.6 mM glucose supplemented with 10% fetal bovine serum, were seeded in 24-well plates at a density of 3.0×10^5 cells/well and cultured for 24 hours in an atmosphere of 5% CO2 at 37°C. […] The transport reaction was initiated by adding 50 µl of 4.5 mM 2-DG (a substrate for GLUTs)/^3H-2-DG (0.625 µCi) followed by incubation for 15 minutes at room temperature. The 2-DG uptake was halted by aspiration of the incubation mixture. Cells were immediately washed 3 times with ice-cold PBS. Samples were extracted with 0.3 N NaOH, and radioactivity was determined by liquid scintillation (Packard, Boston, Massachusetts, USA).

In the case of `Cc1ccc([C@@H]2O[C@H](CO)[C@@H](O)[C@H](O)[C@H]2O)cc1Cc1ccc(-c2ccc(F)cc2)s1` [canagliflozin, Canagliflozin], the 50% inhibitory concentration (IC50) against Rat SGLT1 is 0.571 µM; at Mouse SGLT1, above 1 µM; in assay [1] (3H-2-DG uptake, rat L6 myoblast cells), above 10 µM. Besides, the inhibition at 10 µM in assay [1] (10 µM, L6 myoblasts, read-out: inhibition of facilitative GLUT-mediated 3H-2-DG uptake) was below 50%.

By IC50 is commonly meant the point on the concentration scale where inhibition reaches its midpoint. A higher IC50 goes with weaker potency in that assay. The term inhibition denotes the drop in the measured response relative to a control, in per cent.
